Read-outs that look alike come from different tables or passages of the source.

In general, IC50 refers to the concentration needed to halve the response being measured.

The assay relates to PMA-differentiated THP-1 cells. In words: IL-1β production in PMA-differentiated THP-1 cells stimulated with gramicidin (hTHP-1 assay containing 2% fetal bovine serum; Procedures 1 and 2). Format: cell-based, human. Particulars: 2% fetal bovine serum. Put shortly:
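PMA 20 ng/ml 16-18 h → trypsinise → 50,000 cells/well, RPMI/2% FBS; cpd 1 h (11-pt, 100–0.0017 μM; DMSO 0.37%); gramicidin 5 μM, 2 h; spin; supernatant IL-1β via HTRF.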

Where [1] appears, read: Table B2, class symbols, read-out: hTHP-1 IC50.
Setting [2] is: Table B1, class symbols, read-out: Average IC50 of compounds in hTHP-1 assay: hTHP-1 IC50.
Setting [3] is: Homo sapiens, THP-1, Table B2, class symbols, read-out: hTHP-1 IC50.

Turning to `CCn1cc(Cl)c(S(N)(=O)=NC(=O)Nc2c(C)c(C(F)(F)F)nc3c2CCC3)n1` (single isomer, unassigned) [Compound 729a, (S) or (R)-4-Chloro-1-ethyl-N′-((3-methyl-2-(trifluoromethyl)-6,7-dihydro-5H-cyclopenta[b]pyridin-4-yl)carbamoyl)-1H-pyrazole-3-sulfonimidamide], the IC50 under setting [1] lay in the range of 5 to 30 µM.

`CCC1CCc2c1nc1c(c2NC(=O)N=S(N)(=O)c2sc(C(C)(C)O)cc2F)CCC1` (single isomer, unassigned) [Compound 671c, (R, S) or (R, R) or (S, R) or (S, S)-N′-((3-ethyl-1,2,3,5,6,7-hexahydrodicyclopenta [b,e]pyridin-8-yl)carbamoyl)-3-fluoro-5-(2-hydroxypropan-2-yl) thiophene-2-sulfonimidamide]: the IC50 under setting [1] is 1 to 5 µM.

Take `CC(C)(O)c1cnc(S(N)(=O)=NC(=O)Nc2c3c(nc4c2CCC4O)CCC3)s1` (stereo not drawn) [Example 635, N′-((3-hydroxy-1,2,3,5,6,7-hexahydrodicyclopenta[b,e]pyridin-8-yl)carbamoyl)-5-(2-hydroxypropan-2-yl)thiazole-2-sulfonimidamide]: the IC50 (Homo sapiens, THP-1, Table B3, hTHP-1 assay, numeric values, read-out: IC50) was over 30 µM.

On to `CCn1cc(F)c(S(N)(=O)=NC(=O)Nc2c3c(nc(C(F)(F)F)c2-c2ccccc2)CCC3)n1` (stereo not drawn) [Example 742, 1-Ethyl-4-fluoro-N′-((3-phenyl-2-(trifluoromethyl)-6,7-dihydro-5H-cyclopenta[b]pyridin-4-yl)carbamoyl)-1H-pyrazole-3-sulfonimidamide], for which the IC50 (Homo sapiens, THP-1, Table B4, class symbols, read-out: hTHP-1 IC50) is 0.008 to 0.04 µM.

For `CN(C)Cc1ccc(S(N)(=O)=NC(=O)Nc2c3c(nc4c2CCC4)CCC3)cc1` (single isomer, unassigned) [Compound 130a, (S) or (R)-4-((dimethylamino)methyl)-N′-((1,2,3,5,6,7-hexahydrodicyclo-penta[b,e]pyridin-8-yl)carbamoyl)benzene-sulfonamidamide], the IC50 (Homo sapiens, THP-1, Table B1, numeric bounds, read-out: Average IC50 of compounds in hTHP-1 assay: hTHP-1 IC50) was over 30 µM.

Turning to `CC(C)(O)c1ncc(S(N)(=O)=NC(=O)Nc2c3c(nc4c2CCC4)CCCC3)s1` (single isomer, unassigned) [Compound 161a, (S) or (R)-N′-((2,3,5,6,7,8-hexahydro-1H-cyclopenta[b]quinolin-9-yl)carbamoyl)-2-(2-hydroxypropan-2-yl)thiazole-5-sulfonimidamide], under setting [2], the IC50 lay in the range of 5 to 30 µM.

With `C[C@@H]1CCc2c1nc1c(c2NC(=O)N=S(N)(=O)c2ccn(C)n2)CCC1` (stereo partly drawn) [Compound 639, 1-Methyl-N′-(((R)-3-methyl-1,2,3,5,6,7-hexahydrodicyclopenta[b,e]pyridin-8-yl)carbamoyl)-1H-pyrazole-3-sulfonimidamide], the IC50 under setting [3] fell in the range of 1 to 5 µM.

On to `CC(C)n1nc(S(N)(=O)=NC(=O)Nc2c3c(nc4c2CC[C@H]4C)CCC3)cc1CO` (single isomer, unassigned) [Example 643, (R) or (S)-5-(hydroxymethyl)-1-isopropyl-N′-(((R)-3-methyl-1,2,3,5,6,7-hexahydrodicyclopenta[b,e]pyridin-8-yl)carbamoyl)-1H-pyrazole-3-sulfonimidamide], for which the IC50 (Homo sapiens, THP-1, Table B3, hTHP-1 assay, class symbols, read-out: IC50) was in the range of 1 to 5 µM.

With `Cc1c(C(F)(F)F)nc2c(c1NC(=O)N=[S@@](N)(=O)c1ccn(C)n1)CCC2` [Compound 730b], under setting [3], the IC50 fell in the range of 1 to 5 µM.

Turning to `CCOC(=O)c1nc2c(c(NC(=O)N=S(N)(=O)c3cnc(C(C)(C)O)s3)c1C)CCC2` (stereo not drawn) [Compound 706], the IC50 (Homo sapiens, THP-1, Table B2, numeric bounds, read-out: hTHP-1 IC50) is over 30 µM.

Consider `Cc1c(C(F)(F)F)nc2c(c1NC(=O)N=S(N)(=O)c1nn(C(F)F)cc1F)CCC2` (stereo not drawn) [Compound 717], for which, under setting [3], the IC50 is 0.2 to 1 µM.

As to `CC(C)(O)c1cc(S(N)(=O)=NC(=O)Nc2c3c(nc4c2CCC4)CCC3)nn1-c1ccccc1` (single isomer, unassigned) [Compound 159a, (R) or (S)-N′-((1,2,3,5,6,7-hexahydrodicyclo-penta[b,e]pyridin-8-yl)carbamoyl)-5-(2-hydroxypropan-2-yl)-1-phenyl-1H-pyrazole-3-sulfonimidamide], under setting [2], the IC50 fell in the range of 1 to 5 µM.

Values taken from patent US20230031406A1, “COMPOUNDS AND COMPOSITIONS FOR TREATING CONDITIONS ASSOCIATED WITH NLRP ACTIVITY” (Novartis AG, priority 2018, published 2023).
